Reference: ChEMBL document CHEMBL3885861, “Open TG-GATES”

Species on record: Rattus norvegicus
Assay: Open TG-GATES - Regimen: Daily Repeat
Assay type: toxicity, organism-based, Sprague-Dawley
Set-up: regimen Daily Repeat, gender Male, age 6 weeks
Details: in vivo, po, route gavage; for APTT / Bas / Eos / Fbg / Hb / Ht / Lym / MCH / MCHC / MCV / Mono / Neu / PT / Plat / RBC / Ret / WBC: tissue Blood; for A/G / ALP / ALT / AST / BUN / CRE / Ca / Cl / DBIL / GLC / IP / K / LDH / Na / PL / RALB / TBIL / TC / TG / TP / gamma-GTP: tissue Plasma
[1] = 0 mg/kg, 72 h, dose level Control, time 3 day
[2] = 0 mg/kg, […], dose level Control, time 7 day
[3] = 0 mg/kg, […], dose level Control, time 14 day
[4] = 0 mg/kg, […], dose level Control, time 28 day
[5] = 10 mg/kg, 72 h, dose level Low, time 3 day
[6] = 10 mg/kg, […], dose level Low, time 7 day
[7] = 10 mg/kg, […], dose level Low, time 14 day
[8] = 10 mg/kg, […], dose level Low, time 28 day

Cn1cc[nH]c1=S [METHIMAZOLE]
TERMINAL_BW [1]: 217.3 g | APTT [1]: 21.2 s | Bas [1]: 0% | Eos [1]: 1% | Fbg [1]: 310.8 mg/dL | Hb [1]: 13.8 g/dL | Ht [1]: 38.2% | Lym [1]: 84.8% | MCH [1]: 22.7 pg | MCHC [1]: 36.1% | MCV [1]: 62.8 fL | Mono [1]: 1.6% | Neu [1]: 11.8% | PT [1]: 16.2 s | Plat [1]: 126.3 x10_4/uL | RBC [1]: 609 x10_4/ul | Ret [1]: 6.7% | WBC [1]: 107.5 x10_2/uL | A/G [1]: 1.3 | ALP [1]: 1736 IU/L | ALT [1]: 41.4 IU/L | AST [1]: 68 IU/L | BUN [1]: 17 mg/dL | CRE [1]: 0.1 mg/dL | Ca [1]: 10.8 mg/dL | Cl [1]: 105.8 meq/L | DBIL [1]: 0.002 mg/dL | GLC [1]: 190.8 mg/dL | IP [1]: 6.8 mg/dL | K [1]: 4.1 meq/L | LDH [1]: 187.8 IU/L | Na [1]: 141.8 meq/L | PL [1]: 161 mg/dL | RALB [1]: 3.2 g/dL | TBIL [1]: 0.014 mg/dL | TC [1]: 89.4 mg/dL | TG [1]: 93.8 mg/dL | TP [1]: 5.7 g/dL | gamma-GTP [1]: 1.2 IU/L | TERMINAL_BW [2]: 252.2 g | TERMINAL_BW [3]: 307.5 g | TERMINAL_BW [4]: 373.3 g | APTT [2]: 20.9 s | Bas [2]: 0% | Eos [2]: 0.8% | Fbg [2]: 321.4 mg/dL | Hb [2]: 14.2 g/dL | Ht [2]: 38.9% | Lym [2]: 80.2% | MCH [2]: 22.3 pg | MCHC [2]: 36.5% | MCV [2]: 60.9 fL | Mono [2]: 2.6% | Neu [2]: 15.6% | PT [2]: 15.9 s | Plat [2]: 115.9 x10_4/uL | RBC [2]: 638 x10_4/ul | Ret [2]: 5.8% | WBC [2]: 112.3 x10_2/uL | APTT [3]: 22.2 s | Bas [3]: 0% | Eos [3]: 0.6% | Fbg [3]: 331.8 mg/dL | Hb [3]: 13.7 g/dL | Ht [3]: 39.4% | Lym [3]: 80.6% | MCH [3]: 20.5 pg | MCHC [3]: 34.9% | MCV [3]: 58.7 fL | Mono [3]: 1.8% | Neu [3]: 15.8% | PT [3]: 16.3 s | Plat [3]: 117.4 x10_4/uL | RBC [3]: 672.6 x10_4/ul | Ret [3]: 4.9% | WBC [3]: 112.2 x10_2/uL | APTT [4]: 22.6 s | Bas [4]: 0% | Eos [4]: 1% | Fbg [4]: 316.6 mg/dL | Hb [4]: 15.2 g/dL | Ht [4]: 42.9% | Lym [4]: 82.4% | MCH [4]: 19.3 pg | MCHC [4]: 35.3% | MCV [4]: 54.7 fL | Mono [4]: 2.2% | Neu [4]: 13.2% | PT [4]: 16.4 s | Plat [4]: 97.4 x10_4/uL | RBC [4]: 785.4 x10_4/ul | Ret [4]: 2.6% | WBC [4]: 113.4 x10_2/uL | A/G [2]: 1.2 | ALP [2]: 1790.2 IU/L | ALT [2]: 39 IU/L | AST [2]: 75.8 IU/L | BUN [2]: 17.2 mg/dL | CRE [2]: 0.2 mg/dL | Ca [2]: 10.6 mg/dL | Cl [2]: 107 meq/L | DBIL [2]: 0 mg/dL | GLC [2]: 195.4 mg/dL | IP [2]: 7.5 mg/dL | K [2]: 4.1 meq/L | LDH [2]: 290.8 IU/L | Na [2]: 142.2 meq/L | PL [2]: 163.4 mg/dL | RALB [2]: 3 g/dL | TBIL [2]: 0.002 mg/dL | TC [2]: 84.8 mg/dL | TG [2]: 126 mg/dL | TP [2]: 5.5 g/dL | gamma-GTP [2]: 1 IU/L | A/G [3]: 1.1 | ALP [3]: 1783.8 IU/L | ALT [3]: 42.8 IU/L | AST [3]: 71 IU/L | BUN [3]: 18.2 mg/dL | CRE [3]: 0.2 mg/dL | Ca [3]: 10.6 mg/dL | Cl [3]: 106 meq/L | DBIL [3]: 0 mg/dL | GLC [3]: 182 mg/dL | IP [3]: 7 mg/dL | K [3]: 4.3 meq/L | LDH [3]: 198.6 IU/L | Na [3]: 142.2 meq/L | PL [3]: 158.6 mg/dL | RALB [3]: 3 g/dL | TBIL [3]: 0.014 mg/dL | TC [3]: 75.4 mg/dL | TG [3]: 150.2 mg/dL | TP [3]: 5.8 g/dL | gamma-GTP [3]: 1.6 IU/L | A/G [4]: 1.1 | ALP [4]: 1110.8 IU/L | ALT [4]: 40.4 IU/L | AST [4]: 65.8 IU/L | BUN [4]: 18.4 mg/dL | CRE [4]: 0.2 mg/dL | Ca [4]: 10.5 mg/dL | Cl [4]: 105.4 meq/L | DBIL [4]: 0.002 mg/dL | GLC [4]: 198.8 mg/dL | IP [4]: 6.3 mg/dL | K [4]: 4.4 meq/L | LDH [4]: 191.8 IU/L | Na [4]: 142.4 meq/L | PL [4]: 149.2 mg/dL | RALB [4]: 3.2 g/dL | TBIL [4]: 0.002 mg/dL | TC [4]: 65.8 mg/dL | TG [4]: 168 mg/dL | TP [4]: 6 g/dL | gamma-GTP [4]: 1 IU/L | TERMINAL_BW [5]: 223.1 g | APTT [5]: 19.4 s | Bas [5]: 0% | Eos [5]: 1.2% | Fbg [5]: 325.2 mg/dL | Hb [5]: 13.7 g/dL | Ht [5]: 38.6% | Lym [5]: 81.8% | MCH [5]: 21.9 pg | MCHC [5]: 35.6% | MCV [5]: 61.5 fL | Mono [5]: 2.6% | Neu [5]: 13.6% | PT [5]: 16.4 s | Plat [5]: 128.5 x10_4/uL | RBC [5]: 628.2 x10_4/ul | Ret [5]: 6.5% | WBC [5]: 95 x10_2/uL | A/G [5]: 1.1 | ALP [5]: 1789.2 IU/L | ALT [5]: 40.8 IU/L | AST [5]: 65.6 IU/L | BUN [5]: 16.8 mg/dL | CRE [5]: 0.1 mg/dL | Ca [5]: 11.1 mg/dL | Cl [5]: 106.8 meq/L | DBIL [5]: 0 mg/dL | GLC [5]: 184 mg/dL | IP [5]: 6.3 mg/dL | K [5]: 4.2 meq/L | LDH [5]: 170 IU/L | Na [5]: 141.8 meq/L | PL [5]: 183 mg/dL | RALB [5]: 3.1 g/dL | TBIL [5]: 0.004 mg/dL | TC [5]: 101.6 mg/dL | TG [5]: 128.6 mg/dL | TP [5]: 5.8 g/dL | gamma-GTP [5]: 1.2 IU/L | TERMINAL_BW [6]: 253.1 g | TERMINAL_BW [7]: 300.3 g | TERMINAL_BW [8]: 356.4 g | APTT [6]: 20.3 s | Bas [6]: 0% | Eos [6]: 1% | Fbg [6]: 333 mg/dL | Hb [6]: 13.9 g/dL | Ht [6]: 38.1% | Lym [6]: 80% | MCH [6]: 22.3 pg | MCHC [6]: 36.4% | MCV [6]: 61.3 fL | Mono [6]: 2.6% | Neu [6]: 15.6% | PT [6]: 16.4 s | Plat [6]: 121.5 x10_4/uL | RBC [6]: 622.8 x10_4/ul | Ret [6]: 5.6% | WBC [6]: 102.3 x10_2/uL | APTT [7]: 22.1 s | Bas [7]: 0% | Eos [7]: 0.8% | Fbg [7]: 318.8 mg/dL | Hb [7]: 14 g/dL | Ht [7]: 40.7% | Lym [7]: 85.2% | MCH [7]: 20.1 pg | MCHC [7]: 34.5% | MCV [7]: 58.4 fL | Mono [7]: 2% | Neu [7]: 11.6% | PT [7]: 16.5 s | Plat [7]: 110.2 x10_4/uL | RBC [7]: 697 x10_4/ul | Ret [7]: 4.3% | WBC [7]: 101.8 x10_2/uL | APTT [8]: 23.7 s | Bas [8]: 0% | Eos [8]: 1% | Fbg [8]: 306 mg/dL | Hb [8]: 15 g/dL | Ht [8]: 42.4% | Lym [8]: 84.4% | MCH [8]: 19.4 pg | MCHC [8]: 35.4% | MCV [8]: 54.8 fL | Mono [8]: 2.4% | Neu [8]: 11% | PT [8]: 16.7 s | Plat [8]: 87.5 x10_4/uL | RBC [8]: 773 x10_4/ul | Ret [8]: 2% | WBC [8]: 108.5 x10_2/uL | A/G [6]: 1.1 | ALP [6]: 1430.4 IU/L | ALT [6]: 38 IU/L | AST [6]: 65.8 IU/L | BUN [6]: 17.4 mg/dL | CRE [6]: 0.2 mg/dL | Ca [6]: 10.8 mg/dL | Cl [6]: 107.4 meq/L | DBIL [6]: 0 mg/dL | GLC [6]: 177.8 mg/dL | IP [6]: 7.1 mg/dL | K [6]: 4.1 meq/L | LDH [6]: 232.4 IU/L | Na [6]: 142 meq/L | PL [6]: 171.8 mg/dL | RALB [6]: 3 g/dL | TBIL [6]: 0 mg/dL | TC [6]: 90.8 mg/dL | TG [6]: 149 mg/dL | TP [6]: 5.9 g/dL | gamma-GTP [6]: 1 IU/L | A/G [7]: 1.1 | ALP [7]: 1277.4 IU/L | ALT [7]: 40.6 IU/L | AST [7]: 62.6 IU/L | BUN [7]: 17.6 mg/dL | CRE [7]: 0.2 mg/dL | Ca [7]: 10.6 mg/dL | Cl [7]: 106.6 meq/L | DBIL [7]: 0 mg/dL | GLC [7]: 176.8 mg/dL | IP [7]: 6.1 mg/dL | K [7]: 4.1 meq/L | LDH [7]: 197.6 IU/L | Na [7]: 142.2 meq/L | PL [7]: 170.2 mg/dL | RALB [7]: 3.2 g/dL | TBIL [7]: 0.01 mg/dL | TC [7]: 96 mg/dL | TG [7]: 134 mg/dL | TP [7]: 6.1 g/dL | gamma-GTP [7]: 2 IU/L | A/G [8]: 1.1 | ALP [8]: 1026.6 IU/L | ALT [8]: 29.8 IU/L | AST [8]: 51 IU/L | BUN [8]: 19.2 mg/dL | CRE [8]: 0.2 mg/dL | Ca [8]: 10.7 mg/dL | Cl [8]: 106.4 meq/L | DBIL [8]: 0.002 mg/dL | GLC [8]: 184.8 mg/dL | IP [8]: 5.9 mg/dL | K [8]: 4.1 meq/L | LDH [8]: 143.8 IU/L | Na [8]: 142.6 meq/L | PL [8]: 160 mg/dL | RALB [8]: 3.5 g/dL | TBIL [8]: 0.004 mg/dL | TC [8]: 81.2 mg/dL | TG [8]: 165.4 mg/dL | TP [8]: 6.6 g/dL | gamma-GTP [8]: 1.8 IU/L
